# Patent US8017785B2, “Salt forms of (2S)-(4E)-N-methyl-5-[3-(5-isopropoxypyridin)y1]-4-penten 2-amine” (AstraZeneca AB, priority 2006, dated 2011)
# Target: CNS nicotinic receptors
# Assay: Determination of binding to relevant receptor sites
# Conditions: free base used to prepare the salts
# Experimental: Receptor binding constants provide a measure of the ability of the compound to bind to half of the relevant receptor sites of certain brain cells of the patient. See, Cheng, et al., Biochem. Pharmacol. 22:3099 (1973). The (2S)-(4E)-N-methyl-5-[3-(5-isopropoxypyridin)yl]-4-penten-2-amine compound used to prepare the salts has extremely high affinity for the relevant receptors, with a binding affinity in the low nM range.
# Binding of the compounds to relevant receptor sites was determined in accordance with the techniques described in U.S. Pat. No. 6,953,855 to Mazurov et al Inhibition constants (Ki values), reported in nM, were calculated from the IC50 values using the method of Cheng et al., Biochem, Pharmacol. 22:3099 (1973).
compound,measurement,value
CN[C@@H](C)C/C=C/c1cncc(OC(C)C)c1 [(2S)-(4E)-N-methyl-5-[3-(5-isopropoxypyridin)yl]-4-penten-2-amine],"binding affinity (receptor binding constant, Ki)",low nM range
